According to patent EP0212404A1, “7-oxo-4-thia-1-azabicyclo [3.2.0] hept-2-ene derivatives” (HOECHST AKTIENGESELLSCHAFT, priority 1985, dated 1987):
≈ marks a conversion by molar mass, not a printed value. Like-named read-outs stand apart in the source and are kept apart here.

Key:
Experiment in all cases: agar dilution test (MIC)
Type in all cases: cell-based
[1] = test system: E.coli 055; conditions: Escherichia coli, Mueller Hinton agar, 16 to 18 hours at 37°C, read-out: Minimum Inhibitory Concentration (MIC)
Description: (§1) The antimicrobial activity was determined by measuring the Minimum Inhibitory Concentration (MIC). The MIC of the compounds was determined by a standard test, the "agar dilution test" according to Lorian (Antibiotics in Laboratory Medicine, Williams and Wilkins, Baltimore/London 1980) as follows:
(§2) A two-fold decreasing concentration series of each compound was prepared in Petri dishes containing 15 ml of Mueller Hinton agar (Difco). One Petri dish containing only the Mueller Hinton agar served as control for bacterial growth. Each Petri dish was inoculated with a multi-point inoculator (Denley), which transferred 0.6µl of a 1:100 diluted 18 hours culture of the appropriate test bacterium. After 16 to 18 hours of incubation at 37°C the Petri dishes were examined for growth of bacteria. The lowest concentration of the compound which causes complete inhibition of growth is taken as the MIC except that the growth of a single colony or a haze is not taken as evidence of qrowth.

[2] = test system: Kl.aerog. 1522E; conditions: read-out: Minimum Inhibitory Concentration (MIC)
Description: as §1, §2

[3] = test system: Staph.aureus 285; conditions: Staphylococcus aureus, Mueller Hinton agar, 16 to 18 hours at 37°C, read-out: Minimum Inhibitory Concentration (MIC)
Description: as §1, §2

[4] = test system: E.coli DC2; conditions: Escherichia coli, Mueller Hinton agar, 16 to 18 hours at 37°C, read-out: Minimum Inhibitory Concentration (MIC)
Description: as §1, §2

[5] = test system: Staph.aureus SG511; conditions: Staphylococcus aureus, Mueller Hinton agar, 16 to 18 hours at 37°C, read-out: Minimum Inhibitory Concentration (MIC)
Description: as §1, §2

[6] = test system: E.coli DC0; conditions: Escherichia coli, Mueller Hinton agar, 16 to 18 hours at 37°C, read-out: Minimum Inhibitory Concentration (MIC)
Description: as §1, §2

[7] = test system: Str.pyogenes 77A; conditions: Streptococcus pyogenes, Mueller Hinton agar, 16 to 18 hours at 37°C, read-out: Minimum Inhibitory Concentration (MIC)
Description: as §1, §2

[8] = test system: Ent.cloacae 1321E; conditions: Enterobacter cloacae, read-out: Minimum Inhibitory Concentration (MIC)
Description: as §1, §2

[9] = test system: Ent.cloacae P99; conditions: Enterobacter cloacae, Mueller Hinton agar, 16 to 18 hours at 37°C, read-out: Minimum Inhibitory Concentration (MIC)
Description: as §1, §2

[10] = test system: Staph.aureus 503; conditions: Staphylococcus aureus, Mueller Hinton agar, 16 to 18 hours at 37°C, read-out: Minimum Inhibitory Concentration (MIC)
Description: as §1, §2

[11] = test system: Str.pyogenes 308A; conditions: Streptococcus pyogenes, Mueller Hinton agar, 16 to 18 hours at 37°C, read-out: Minimum Inhibitory Concentration (MIC)
Description: as §1, §2

[12] = test system: Kl.aerog. 1082E; conditions: Mueller Hinton agar, 16 to 18 hours at 37°C, read-out: Minimum Inhibitory Concentration (MIC)
Description: as §1, §2

[13] = test system: Str.faecium D; conditions: Enterococcus faecium, read-out: Minimum Inhibitory Concentration (MIC)
Description: as §1, §2

[14] = test system: E.coli TEM; conditions: Escherichia coli, read-out: Minimum Inhibitory Concentration (MIC)
Description: as §1, §2

[15] = test system: E.coli 1507E; conditions: Escherichia coli, read-out: Minimum Inhibitory Concentration (MIC)
Description: as §1, §2

[16] = test system: Bac.subt. ATCC6633; conditions: Mueller Hinton agar, 16 to 18 hours at 37°C, read-out: Minimum Inhibitory Concentration (MIC)
Description: as §1, §2

[17] = test system: E.coli KN126; conditions: Escherichia coli, Mueller Hinton agar, 16 to 18 hours at 37°C, read-out: Minimum Inhibitory Concentration (MIC)
Description: as §1, §2

[18] = test system: Salm.typh. MZII; conditions: Mueller Hinton agar, 16 to 18 hours at 37°C, read-out: Minimum Inhibitory Concentration (MIC)
Description: as §1, §2

[19] = Kl.aerog. 1522E, Mueller Hinton agar, 16 to 18 hours at 37°C
[20] = Str.faecium D, Mueller Hinton agar, 16 to 18 hours at 37°C
[21] = E.coli 1507E, Mueller Hinton agar, 16 to 18 hours at 37°C

Structure (SMILES) | MIC [1] [µg/mL] | MIC [2, 19] [µg/mL] | MIC [3] [µg/mL] | MIC [4] [µg/mL] | MIC [5] [µg/mL] | MIC [6] [µg/mL] | MIC [7] [µg/mL] | MIC ([8]; 1321E) [µg/mL] | MIC [9] [µg/mL] | MIC [10] [µg/mL] | MIC [11] [µg/mL] | MIC [12] [µg/mL] | MIC [13] [µg/mL] | MIC [14] [µg/mL] | MIC ([15]; 1507E) [µg/mL] | MIC [16] [µg/mL] | MIC [17] [µg/mL] | MIC [18] [µg/mL] | MIC [13, 20] [µg/mL] | MIC [15, 21] [µg/mL] | other results
C[C@@H](O)[C@H]1C(=O)N2C(C(=O)O)=C(c3ccc(F)cc3)S[C@H]12 [Example 4-F] | 1.56 (≈ 5.04 µM) | 12.5 (≈ 40.4 µM) | 0.19 (≈ 0.614 µM) | 1.56 (≈ 5.04 µM) | 0.19 (≈ 0.614 µM) | 25 (≈ 80.8 µM) | < 0.05 | 3.13 (≈ 10.1 µM) | 25 (≈ 80.8 µM) | 0.19 (≈ 0.614 µM) | < 0.05 | 1.56 (≈ 5.04 µM) | 3.13 (≈ 10.1 µM) | 6.25 (≈ 20.2 µM) | 6.25 (≈ 20.2 µM) | 0.1 (≈ 0.323 µM) | 6.25 (≈ 20.2 µM) | 3.13 (≈ 10.1 µM) |  |  | 
C[C@@H](O)[C@H]1C(=O)N2C(C(=O)O)=C(c3ccc(NC=O)cc3)S[C@H]12 [Example 4-NHCHO] | 0.19 (≈ 0.568 µM) | 0.39 (≈ 1.17 µM) | 0.1 (≈ 0.299 µM) | 0.19 (≈ 0.568 µM) | 0.05 (≈ 0.15 µM) | 0.78 (≈ 2.33 µM) | < 0.013 |  | 6.25 (≈ 18.7 µM) | 0.1 (≈ 0.299 µM) | < 0.013 | 0.19 (≈ 0.568 µM) |  | 0.39 (≈ 1.17 µM) |  | 0.025 (≈ 0.0748 µM) | 0.39 (≈ 1.17 µM) |  | 0.78 (≈ 2.33 µM) | 0.39 (≈ 1.17 µM) | MIC ([8]; Ent.cloacae 1321E, Mueller Hinton agar, 16 to 18 hours at 37°C): 0.39 µg/mL (≈ 1.17 µM)
COc1ccc(C2=C(C(=O)O)N3C(=O)[C@H]([C@@H](C)O)[C@H]3S2)cc1 [Example 4-OCH3] | 3.13 (≈ 9.74 µM) |  | 0.19 (≈ 0.591 µM) | 0.78 (≈ 2.43 µM) | 0.1 (≈ 0.311 µM) | 25 (≈ 77.8 µM) | < 0.05 | 12.5 (≈ 38.9 µM) | 100 (≈ 311 µM) | 0.19 (≈ 0.591 µM) | < 0.05 | 0.78 (≈ 2.43 µM) |  | 12.5 (≈ 38.9 µM) | 12.5 (≈ 38.9 µM) | 0.1 (≈ 0.311 µM) | 12.5 (≈ 38.9 µM) | 6.25 (≈ 19.4 µM) | 3.13 (≈ 9.74 µM) |  | MIC [2]: 12.5 µg/mL (≈ 38.9 µM)
CSc1ccc(C2=C(C(=O)O)N3C(=O)[C@H]([C@@H](C)O)[C@H]3S2)cc1 [Example 4-SCH3] | 6.25 (≈ 18.5 µM) | 25 (≈ 74.1 µM) | 0.19 (≈ 0.563 µM) | 0.78 (≈ 2.31 µM) |  | 50 (≈ 148 µM) | < 0.05 | 12.5 (≈ 37 µM) | 50 (≈ 148 µM) | 0.19 (≈ 0.563 µM) | < 0.05 | 0.78 (≈ 2.31 µM) |  | 25 (≈ 74.1 µM) |  | 0.1 (≈ 0.296 µM) | 12.5 (≈ 37 µM) | 12.5 (≈ 37 µM) | 3.13 (≈ 9.28 µM) | 25 (≈ 74.1 µM) | 
C[C@@H](O)[C@H]1C(=O)N2C(C(=O)O)=C(c3ccccc3)S[C@H]12 [H] | 0.78 (≈ 2.68 µM) |  | 0.19 (≈ 0.652 µM) | 0.39 (≈ 1.34 µM) | 0.1 (≈ 0.343 µM) | 3.12 (≈ 10.7 µM) | < 0.05 | 1.56 (≈ 5.35 µM) | 12.5 (≈ 42.9 µM) | 0.1 (≈ 0.343 µM) | < 0.05 | 0.78 (≈ 2.68 µM) | 1.56 (≈ 5.35 µM) | 1.56 (≈ 5.35 µM) | 1.56 (≈ 5.35 µM) | 0.1 (≈ 0.343 µM) | 3.12 (≈ 10.7 µM) |  |  |  | MIC [2]: 1.56 µg/mL (≈ 5.35 µM)
